Data on seven molecules can be found in ChEMBL document CHEMBL5052831, “Serpin inhibitors for the treatment of prion and prion-like diseases” (2021).

For the experiment, the system named is ScGT1. The experiment can be described thus: Inhibition of SERPINA3N in mouse GT1 cells chronically infected with RML prion (ScGT1) assessed as reduction of PrPSc levels measured by western blot analysis. The experiment is classed as cell-based. Also on record: concentration or dose not given beside the values.
`O=C(NC1CCCOC1)c1cnn(-c2ccc(F)cc2)c1` (configuration not stated): the Activity turned out to be 50%.

For `Cc1ccc(-n2ncc(C(=O)C3CCN(C(=O)c4scnc4C)CC3)c2N)cc1`, the Activity amounted to 50%.

`Cc1ccc(-n2ncc(C(=O)C3CCN(C(=O)C4CCC4)C3)c2N)cc1` (configuration not stated): the Activity is 50%.

`Nc1c(C(=O)C2CCN(C(=O)c3ccno3)CC2)cnn1-c1ccccc1`: the Activity amounted to 50%.

`CC(=O)N1CCC(C(=O)c2cnn(-c3cccc(F)c3)c2N)CC1`: the Activity came to 50%.

Turning to `Cc1n[nH]c(C)c1CNC(=O)c1cnn(-c2ccc(F)cc2)c1`, the Activity was 50%.

Consider `Nc1c(C(=O)c2c[nH]c3ccccc23)cnn1-c1ccccc1`, for which the Activity worked out at 50%.
